# Results as given in US20080199897A1, “CLASS II HISTONE DEACETYLASE WHOLE CELL ENZYME ASSAY” (MethylGene Inc., priority 2007, published 2008).
# pIC50: −log10 of the molar value. Structures can show the parent of a compound that is named as a salt. Where two headings read alike, the source gives them in different places.
# What was measured:
# [1] = system: Class I and Class II HDACs; assay: enzymatic reactivity of substrates for Class I and Class II HDACs; assay type: biochemical; details: FIG. 12 legend
# Description: (§1) A 30 mM stock of Boc-Lys(TFA)-AMC substrate was prepared in DMSO. 2 μl test compound in DMSO was diluted in 50 μl buffer (25 mM HEPES, pH 8.0, 137 mM NaCl, 2.7 mM KCl, 1 mM MgCl2, 0.1% BSA) and pre-incubated with Class II HDAC enzyme (30 μl of a final enzyme concentration of 0.1-0.2 nM) for 10 minutes at room temperature. Reaction was started by adding 18 μl Boc-Lys(TFA)-AMC substrate and incubating at 37° C. for 20-30 minutes. The reaction was stopped by adding 50 μl trypsin (1 mg/ml) and a known HDAC inhibitor. The plate was then incubated in the dark for 20 minutes at room temperature and read with Ex=360 nm, Em=470 nm, cutoff filter at 435 nm.
# as §1, with “of Boc-Lys(thioAc)-AMC” for “of Boc-Lys(TFA)-AMC”, “in 15” for “in 50”, “enzyme (15” for “enzyme (30”, “of 50-500” for “of 0.1-0.2”, “μl Boc-Lys(thioAc)-AMC” for “μl Boc-Lys(TFA)-AMC”, “for 30-60” for “for 20-30”
# [2] = system: CD-1 mouse whole blood cells; assay: deacetylase activity in serum from mouse whole blood contacted with substrate; assay type: cell-based; details: 300 uM substrate
# Description: CD-1 Mouse blood was collected in heparin tubes and cells were counted by Coulter counter (Beckman Coulter, Ville St. Laurent, Quebec). The amount of whole blood containing 1.6×10E6 white blood cells was aliquoted and the volume was brought up to 200 ul with RPMI (+10% FBS). Boc-Ac-Lys-AMC was added to a final concentration of 300 uM. After various amounts of time, the mix was spun (400×g for 5 min), and 50 ul of the supernatant (serum) was transferred to a 96-well plate. The amount of deacetylated product Boc-Lys-AMC present in the supernatant was detected by adding an equal volume of the developer mix and reading after 15 minutes incubation. […] Thus total HDAC activity in primary cells could be easily monitored in bodily fluid where animals were contacted with HDAC substrates ex vivo.
# [3] = system: 293T cells; assay: intracellular and excellular deacetylase activity of 293T cells; assay type: cell-based, human; details: 300 uM substrate
# Description: Freshly trypsinized cells (293T) were dispensed into 96-well black Costar E1A/RIA plates (Corning Inc., Corning, N.Y.). Small molecule substrate Boc-Lys(Ac)-AMC (Bachem Biosciences Inc., King of Prussia, Philadelphia) were added to cell suspension with the final concentration of 300 uM. Cells were placed in 37° C. incubator with 5% CO2 for indicated time period. Supernatant was collected if necessary and subject to spinning. Reaction was stopped by adding a freshly prepared Fluor-de-Lys™ developer (Biomol, Plymouth Meeting, Philadelphia) with 1 uM TSA (Biomol, Plymouth Meeting, Philadelphia) in assay buffer (25 mM Tris, HCl pH8.0, 137 mM NaCl, 2.7 mM KCl, 1 mM MgCl2) plus 1% NP-40 into supernatant or cell pellets. Fluorescence was developed for 15 minutes at 37° C. and read in a fluorometer (SPECTRAMAX GeminiXS, Molecular Devices, Sunnylvale, Calif.) with an excitation wavelength at 360 nm, emission at 470 nm, and a cutoff of 435 nm. […] In contrast, when there is no substrates added, neither supernatant from cultured cells nor cell pellets have HDAC activity.
# [4] = system: total HDAC activity in human white blood cells; assay: ex vivo inhibition of whole cell HDAC activity in human white blood cells; assay type: cell-based; details: 16 hours incubation; Boc-Lys(ac)-AMC substrate
# Description: Whole blood (human or mouse) was centrifuged at 2500 rpm for 10 minutes at ambient temperature in a Sorvall RT-7 centrifuge (Mandel Scientific Co., Guelph, Ontario). Plasma was removed and buffy coat was collected. Five volumes of Erythrocyte Lysis Buffer (EL) (Qiagen Canada Inc., Mississauga, Ontario) were added to buffy coat. Buffy coat was incubated on ice for 20 minutes before it was centrifuged at 400 g for 10 minutes at 4° C. Supernatant was removed and buffy coat was washed twice with EL buffer and re-centrifugation. Buffy coat was resuspended in RPMI media and cells (white blood cells) were counted with trypan blue exclusion. White blood cells were plated into 96-well dish in RPMI plus 10% fetal bovine serum. HDAC small molecule substrate Boc-Lys(ac)-AMC was added to cell suspensions and incubated with cells for 90 minutes at 37° C. before reaction was stopped, and fluorescence was developed and read.
# Human white blood cells (buffy coat) isolated from human donors were plated into 96-well dish in RPMI plus 10% fetal bovine serum. HDAC inhibitors with a range of dilutions were incubated with cells for 16 hours at 37 C with 5% CO2. HDAC small molecule substrate Boc-Lys(ac)-AMC was added into cell suspensions and incubated with cells for 90 minutes before reaction was stopped, and fluorescence was developed and read.
# [5] = system: A549; assay: whole cell deacetylase assay with Boc-Lys(Ac)-AMC in A549 cells
# Description: (§2) Freshly trypsinized cells were dispensed into 96-well black Costar E1A/RIA plates (Corning Inc., Corning, N.Y.). Small molecule substrate Boc-Lys(Ac)-AMC (Bachem Biosciences Inc., King of Prussia, Philadelphia) was added to cell suspension with the final concentration of 300 uM. Cells were placed in 37° C. incubator with 5% CO2 for 90 minutes. […] With the presence of 1% NP-40, both excellular and intracellular HDAC activity was measured in cultured cells altogether. Fluorescence was developed for 15 minutes at 37 C and read in a fluorometer (SPECTRAMAX GeminiXS, Molecular Devices, Sunnylvale, Calif.) with an excitation wavelength at 360 nm, emission at 470 nm, and a cutoff of 435 nm.
# [6] = system: 293T; assay: whole cell deacetylase assay with Boc-Lys(Ac)-AMC in 293T cells; details: read-out: whole cell deacetylase IC50, 293T
# Description: as §2
# [7] = system: Du145; assay: whole cell deacetylase assay with Boc-Lys(Ac)-AMC in Du145 cells
# Description: as §2
# [8] = system: HCT116; assay: whole cell deacetylase assay with Boc-Lys(Ac)-AMC in HCT116 cells
# Description: as §2
# [9] = system: Jurkat T; assay: whole cell deacetylase assay with Boc-Lys(Ac)-AMC in Jurkat T cells; details: read-out: whole cell deacetylase IC50, Jurkat T
# Description: as §2
# [10] = system: Panc-1; assay: whole cell deacetylase assay with Boc-Lys(Ac)-AMC in Panc-1 cells; details: read-out: whole cell deacetylase IC50, Panc-1, pre-incubated with inhibitor 16 hours, Boc-Lys(Ac)-AMC substrate, mean of at least 2 experiments
# Description: as §2
compound,measurement,setting,value
CC(=O)NCCCC[C@H](NC(=O)OC(C)(C)C)C(=O)Nc1ccc2c(C)cc(=O)oc2c1 [Boc-Lys(Ac)-AMC],HDAC class specificity of substrate,[1],"specific for Class I HDACs, especially HDAC1, HDAC2 and HDAC6"
same,cell permeability,[2],permeable to go inside cells
same,cell permeability,[3],could permeablize into cells
Cc1cc(=O)oc2cc(NC(=O)[C@H](CCCCNC(=O)C(F)(F)F)NC(=O)OC(C)(C)C)ccc12 [Boc-Lys(Tfa)-AMC],HDAC class specificity of substrate,[1],specific for Class II HDACs
CC(=S)NCCCCC(NC(=O)OC(C)(C)C)C(=O)Nc1ccc2c(C)cc(=O)oc2c1 (stereo not shown) [Boc-Lys(thioAc)-AMC],HDAC class specificity of substrate,[1],specific for Class II HDACs
Cc1cc(=O)oc2cc(NC(=O)[C@H](CCCCN)NC(=O)OC(C)(C)C)ccc12 [Boc-Lys-AMC],cell permeability,[2],permeable to come out from cells
O=C(/C=C/c1ccc(CN(CCO)CCc2c[nH]c3ccccc23)cc1)NO [LAQ-824],inhibition of whole cell HDAC activity in human white blood cells,[4],dose-dependent inhibition
same,pIC50,"[5]; Homo sapiens, A549, read-out: whole cell deacetylase IC50, A549",7.70
same,pIC50,"[6]; Homo sapiens, HEK-293T",7.40
same,pIC50,"[7]; Homo sapiens, DU-145, read-out: whole cell deacetylase IC50, Du145",7.30
same,pIC50,"[8]; Homo sapiens, HCT-116, read-out: whole cell deacetylase IC50, HCT116",7.22
same,pIC50,"[9]; Homo sapiens, Jurkat",7.40
Nc1ccccc1NC(=O)c1ccc(CNC(=O)OCc2cccnc2)cc1 [MS-275],pIC50,"[5]; read-out: whole cell deacetylase IC50, A549, A549 cells, pre-incubated with inhibitor 16 hours, Boc-Lys(Ac)-AMC substrate, mean of at least 2 experiments",6.40
same,pIC50,"[6]; 293T cells, pre-incubated with inhibitor 16 hours, Boc-Lys(Ac)-AMC substrate, mean of at least 2 experiments",5.70
same,pIC50,"[7]; read-out: whole cell deacetylase IC50, Du145, Du145 cells, pre-incubated with inhibitor 16 hours, Boc-Lys(Ac)-AMC substrate, mean of at least 2 experiments",6.52
same,pIC50,"[8]; read-out: whole cell deacetylase IC50, HCT116, HCT116 cells, pre-incubated with inhibitor 16 hours, Boc-Lys(Ac)-AMC substrate, mean of at least 2 experiments",5.52
same,pIC50,[10],6.30
same,pIC50,"[9]; Jurkat T cells, pre-incubated with inhibitor 16 hours, Boc-Lys(Ac)-AMC substrate, mean of at least 2 experiments",6.52
CC(=O)O[C@H]1C(=O)[C@@]2(C)[C@H]([C@H](OC(=O)c3ccccc3)[C@]3(O)C[C@H](OC(=O)[C@H](O)[C@@H](NC(=O)c4ccccc4)c4ccccc4)C(C)=C1C3(C)C)[C@]1(OC(C)=O)CO[C@@H]1C[C@@H]2O [Taxol],pIC50,"[6]; Homo sapiens, HEK-293T",< 4.30
